Assay results reported in US20260297542A1, “HERBICIDE RESISTANT PLANTS” (SYNGENTA CROP PROTECTION AG, priority 2023, published 2026).
Changes are numbered by the printed parent chain.

Assays:
Assay in all cases: E. coli hemG growth inhibition by herbicide, AtPPO1 variant
Type in all cases: cell-based
Details in all cases: read-out: percentage growth inhibition
AtPPO1 Y426M = molecular target: T1, AtPPO1 Y426M (Arabidopsis thaliana, UniProt P55826, Y426M)
T1 construct: expressed in transfected cells; host or cells: E. coli BL21(DE3) hemG (pET24a, T7 promoter)
T1 sequence (P55826 35-537 Y426M): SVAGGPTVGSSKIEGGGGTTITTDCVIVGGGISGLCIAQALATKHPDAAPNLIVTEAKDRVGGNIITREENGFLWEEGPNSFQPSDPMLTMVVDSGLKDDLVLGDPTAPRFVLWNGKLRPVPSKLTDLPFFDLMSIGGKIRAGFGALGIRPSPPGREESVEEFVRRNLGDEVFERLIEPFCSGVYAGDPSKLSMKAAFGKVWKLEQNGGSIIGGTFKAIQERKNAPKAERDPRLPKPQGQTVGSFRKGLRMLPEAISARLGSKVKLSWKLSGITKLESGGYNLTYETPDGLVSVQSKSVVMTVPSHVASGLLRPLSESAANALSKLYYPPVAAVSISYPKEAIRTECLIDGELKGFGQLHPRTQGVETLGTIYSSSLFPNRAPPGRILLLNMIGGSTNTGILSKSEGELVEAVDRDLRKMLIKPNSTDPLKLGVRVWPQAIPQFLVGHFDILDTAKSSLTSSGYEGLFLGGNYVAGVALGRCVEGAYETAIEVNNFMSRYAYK
Procedure, shortened: (§1)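 E. coli BL21(DE3) ΔhemG::CmR complemented by AtPPO1 variants (pET24a, T7, E. coli codon-optimised); TB + 0.1 mM IPTG, 1:100 inoculum; 6.25 ppm herbicide 0/E or 0.78 ppm herbicide B vs DMSO; 24 h, 37° C, 250 rpm; OD600 at 24 h → % growth inhibition.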

AtPPO1 Y361F = molecular target: T2, AtPPO1 Y361F (Arabidopsis thaliana, UniProt P55826, Y361F)
T2 construct: expressed in transfected cells; host or cells: E. coli BL21(DE3) hemG (pET24a, T7 promoter)
T2 sequence (P55826 35-537 Y361F): T1 sequence (P55826 35-537 Y426M) with Y327F, M392Y
Procedure, shortened: as §1

AtPPO1 WT = molecular target: T3, AtPPO1 WT (Arabidopsis thaliana, UniProt P55826)
T3 construct: expressed in transfected cells; host or cells: E. coli BL21(DE3) hemG (hemG replaced by CmR), pET24a plasmid
T3 sequence (P55826 1-537): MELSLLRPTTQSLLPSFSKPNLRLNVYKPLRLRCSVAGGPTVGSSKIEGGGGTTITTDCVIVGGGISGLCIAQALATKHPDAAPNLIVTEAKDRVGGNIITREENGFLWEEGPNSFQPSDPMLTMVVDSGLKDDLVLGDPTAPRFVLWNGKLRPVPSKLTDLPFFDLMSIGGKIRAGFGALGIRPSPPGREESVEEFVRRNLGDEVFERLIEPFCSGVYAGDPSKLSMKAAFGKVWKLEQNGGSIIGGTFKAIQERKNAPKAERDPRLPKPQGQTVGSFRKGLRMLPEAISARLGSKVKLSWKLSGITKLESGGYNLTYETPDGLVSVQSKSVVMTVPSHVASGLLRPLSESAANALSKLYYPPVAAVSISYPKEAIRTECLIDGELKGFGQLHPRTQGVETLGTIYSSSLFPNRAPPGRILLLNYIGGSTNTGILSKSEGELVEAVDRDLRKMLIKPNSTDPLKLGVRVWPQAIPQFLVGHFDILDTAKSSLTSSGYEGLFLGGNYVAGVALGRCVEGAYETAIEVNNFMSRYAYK
Procedure, shortened: as §1

AtPPO1 P418M = molecular target: T4, AtPPO1 P418M (Arabidopsis thaliana, UniProt P55826, P418M)
T4 construct: expressed in transfected cells; host or cells: E. coli BL21(DE3) hemG (pET24a, T7 promoter)
T4 sequence (P55826 35-537 P418M): T1 sequence (P55826 35-537 Y426M) with P384M, M392Y
Procedure, shortened: as §1

Question: Which inhibition at 0.78 ppm (AtPPO1 Y426M) does the source give for `C#CCN1C(=O)C(F)(F)Oc2cc(F)c(-n3c(=O)n(C)c(=S)n(C)c3=O)cc21` [Herbicide B, trifludimoxazin] here?
Answer: 7%

Question: And the inhibition at 0.78 ppm (AtPPO1 Y361F)?
Answer: 31%

Question: What about the inhibition at 0.78 ppm (AtPPO1 WT) of the same compound?
Answer: 61%

Question: And the inhibition at 0.78 ppm (AtPPO1 P418M)?
Answer: 12%

Question: Which results are given for `CCOC(=O)[C@]1(C)CC(c2cc(-n3c(=O)n(C)c(=S)n(C)c3=O)c(F)cc2Cl)=NO1` [Herbicide D, ethyl (5S)-3-[2-chloro-5-(3,5-dimethyl-2,6-dioxo-4-thioxo-1,3,5-triazinan-1-yl)-4-fluoro-phenyl]-5-methyl-4H-isoxazole-5-carboxylate]?
Answer: inhibition at 6.25 ppm (AtPPO1 Y426M): 25%; inhibition at 6.25 ppm (AtPPO1 Y361F): 37%; inhibition at 6.25 ppm (AtPPO1 WT): 58%; inhibition at 6.25 ppm (AtPPO1 P418M): 25%

Question: `CC(C)N(C)S(=O)(=O)NC(=O)c1cc(-n2c(=O)cc(C(F)(F)F)n(C)c2=O)c(F)cc1Cl` [Herbicide E, saflufenacil] was tested. Which inhibition at 6.25 ppm (AtPPO1 Y426M) did it give?
Answer: 17%

Question: And the inhibition at 6.25 ppm (AtPPO1 Y361F)?
Answer: 50%

Question: And the inhibition at 6.25 ppm (AtPPO1 WT)?
Answer: 64%

Question: What about the inhibition at 6.25 ppm (AtPPO1 P418M) of the same compound?
Answer: 64%
